Data reported in US10138212B2, “Aminoquinazoline compounds as A2A antagonist” (Merck Sharp & Dohme Corp., priority 2015, dated 2018).

Legend:
[1] = biological target: human A1 receptor (Homo sapiens (Human), UniProt P30542); experiment: A1 competition binding assay using Scintillation Proximity technology; selectivity = A1 binding Ki / A2a binding Ki; conditions: A1 binding Ki divided by A2a binding Ki
Experimental: (§1) Binding affinities of compounds of the invention for the human A1 receptor were determined in a competition binding assay using Scintillation Proximity technology. Thus, 5 of membranes from CHO-K1 cells expressing the human A1 receptor were incubated with a compound of the invention at concentrations ranging from 3000 nM to 0.15 nM in a reaction mixture containing also 0.7 nM of a tritiated form of 8-Cyclopentyl-1,3-dipropylxanthine (the tritiated compound) and 25 μg of wheat germ agglutin-coated yttrium silicate SPA beads for one hour at room temperature with agitation. The beads were then allowed to settle to the bottom of the wells for 1 hr, after which the membrane-associated radioactivity was determined by scintillation counting in a TopCount microplate reader. Ki values were determined in a similar fashion described with A2a binding.
• Cells expressing the human, rat, dog or monkey adenosine 1 receptor (Purchased from Perkin-Elmer # ES-010-M400UA • [^3H]DPCPX (purchased from Perkin-Elmer NET-974, 8-cyclopentyl-1,3-dipropylxanthine, [dipropyl-2,3-^3H(N)]. • Wheatgerm agglutinin-coated yttrium silicate SPA beads (Purchased from GE Healthcare #RPNQ0023). Dilute to 25 mg/ml in assay buffer. Store at 4° C. • Assay Buffer—Dulbecco's phosphate buffered saline without calcium and without magnesium+10 mM MgCl2 • Adenosine deaminase from calf intestine, 10 mg/2 ml (Roche #10 102 105 001). • DMSO • DPCPX (A1 antagonist) from Tocris Bioscience Compound Dilution • Dilute compounds to 1 mM in 100% DMSO
Make serial dilutions as necessary (i.e., 1:10, 1:3) in 100% DMSO.
Dilute 1:20 into assay buffer (i.e. 3 ul into 57 ul buffer). This is a 5× solution in 5% DMSO.
• Dilute [^3H]DPCPX to 1.75 nM in assay buffer. This is a 2.5× solution. The final concentration in the assay is 0.7 nM. Calculate the concentration by counting two 5 ul aliquots. Membrane Preparation • Use 5 ug of membrane/well. Dilute membranes to 250 ug/ml in assay buffer. Treat with 20 ug/ml adenosine deaminase (ADA) for 15 minutes at room temperature to degrade endogenous adenosine. Membrane-Bead Mixture • Use 25 ug/well wheatgerm agglutinin-coated yttrium silicate SPA beads • Mix ADA-treated membranes and SPA beads together for 30 min prior to assay. Assay Assembly • Add in order to a Perkin-Elmer Optiplate-384: 10 ul of 5× compound, 20 ul of 2.5× [^3H]DPCPX, 20 ul membrane-bead mixture. Incubate for one hour at room temperature with agitation. • Include total binding (assay buffer+1% DMSO) and non-specific binding (DPCPX, 1 uM) wells. Counting and Calculations

[2] = biological target: human A2a receptor (Homo sapiens (Human), UniProt P29274); experiment: A2a competition binding assay using Scintillation Proximity technology
Experimental: as §1, with “human A2a” for “human A1”, “Thus, 1* μg, or preferably 0.25 μg” for “Thus, 5”, “from HEK293” for “from CHO-K1”, “also 0.5” for “also 0.7”, “of 5-amino-7-[2-phenethyl]-2-(furan-2-yl)-7H-pyrazolo[4,3-e][1,2,4]triazolo[1,5-c]pyrimidine” for “of 8-Cyclopentyl-1,3-dipropylxanthine”, “determined using the Cheng-Prusoff equation.” for “determined in a similar fashion described with A2a binding.”
HEK293 cells expressing the human, rat, dog or monkey adenosine 2a receptor (Purchased from Perkin-Elmer # RBHA2AM400UA).
The Tritiated compound was prepared in-house by MRL Radiochemistry according to published methods.
Wheat germ agglutinin-coated yttrium silicate SPA beads (GE Healthcare #RPNQ0023). Dilute to 25 mg/ml in assay buffer.
Assay Buffer was prepared in house: Dulbecco's calcium and magnesium free phosphate buffered saline+10 mM MgCl2
Adenosine deaminase from calf intestine, 10 mg/2 ml (Roche #10 102 105 001).
A2a antagonist standard (9-chloro-1-(2-furanyl)-[1,2,4]triazolo1,5-c]quinazolin-5-amine from Tocris Bioscience)
Make eight 1:3 serial dilutions in 100% DMSO from a 3 mM compound stock
Transfer 50 nl of compound into a 384-well OptiPlate (Perkin Elmer).
Typically, final concentrations of compound used in the assay ranged from 3000 nM to 0.152 nM.
Dilute a solution of the Tritiated compound to 1.25 nM in assay buffer. This is a 2.5× solution. The final concentration in the assay is 0.5 nM. Calculate the concentration by counting two 5 μl aliquots.
Use *1 ug or preferrably 0.25 ug of membrane/well. Dilute membranes to 9.7 μg/ml in assay buffer. Treat with 20 ug/ml adenosine deaminase (ADA) for 15 minutes at room temperature to degrade endogenous adenosine.
Use 25 μg/well wheat germ agglutinin-coated yttrium silicate SPA beads.
Mix ADA-treated membranes and SPA beads together for 30 min prior to assay.
To the Perkin-Elmer Optiplate-384 containing the compound titration add 20 μl of 2.5× solution of the Tritiated compound and 30 μl of the membrane-bead mixture. Incubate for one hour at room temperature with agitation.
Include total binding (assay buffer+1% DMSO) and non-specific binding (CGS15943, 1 μM) wells.
Allow the beads to settle for one hour.
A curve fitting program (i.e., Prism, Activity Base, Chemcart) is used to determine the EC50. The Ki value is calculated using the Cheng-Prusoff equation. Ki=EC50/(1+(radioligand concentration/Kd))
Using the foregoing assay method, the Ki results were obtained using the compounds of the invention described in Tables IIIa, IIIb, and IV. Each example compound tested is reported in the following format: Example number: A2a Ki reported in nM. Thus, for example, the compound Ex-1 was determined to have an Ki using the above-described assay and calculations, of 10.0 nM.

[3] = * assay run with 1 μg of membranes versus 0.25 μg, HEK293 cells expressing the human A2a receptor
[4] = 0.25 μg of membranes from HEK293 cells expressing the human A2a receptor

human A2a receptor, sequence (P29274 whole entry): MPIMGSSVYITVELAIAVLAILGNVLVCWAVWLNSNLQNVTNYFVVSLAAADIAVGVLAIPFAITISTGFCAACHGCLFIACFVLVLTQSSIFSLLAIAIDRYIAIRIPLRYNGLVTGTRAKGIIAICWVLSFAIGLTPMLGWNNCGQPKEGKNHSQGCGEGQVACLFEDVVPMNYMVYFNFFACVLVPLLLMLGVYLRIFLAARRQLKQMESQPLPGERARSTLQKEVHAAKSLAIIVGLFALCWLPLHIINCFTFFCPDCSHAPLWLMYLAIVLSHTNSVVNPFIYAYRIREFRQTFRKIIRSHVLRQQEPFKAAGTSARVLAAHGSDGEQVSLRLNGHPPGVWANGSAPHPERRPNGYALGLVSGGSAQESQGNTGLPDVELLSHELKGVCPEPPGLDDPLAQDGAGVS
human A1 receptor, sequence (P30542 whole entry): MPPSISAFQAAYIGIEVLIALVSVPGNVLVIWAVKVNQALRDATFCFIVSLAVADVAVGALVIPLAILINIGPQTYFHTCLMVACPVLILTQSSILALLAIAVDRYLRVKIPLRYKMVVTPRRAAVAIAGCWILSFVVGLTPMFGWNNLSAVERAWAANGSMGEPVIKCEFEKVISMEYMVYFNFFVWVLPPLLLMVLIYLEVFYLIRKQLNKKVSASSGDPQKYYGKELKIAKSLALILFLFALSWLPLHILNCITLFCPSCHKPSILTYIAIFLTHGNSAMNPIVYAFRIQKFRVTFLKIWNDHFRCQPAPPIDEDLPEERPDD

Structure (SMILES) | A2a selectivity (A2a A1 binding selectivity) [1] | Ki [2, 3] | Ki [2, 4]
[2H]C([2H])(NC(=O)c1nc(N)nc2c(OC)cccc12)c1cccc(C([2H])([2H])c2cncc(-c3ncco3)c2)n1 [Example 108, 2-amino-N-[dideuterio-[6-[dideuterio-(5-oxazol-2-yl-3-pyridyl)methyl]-2-pyridyl]methyl]-8-methoxy-quinazoline-4-carboxamide] | 77 | 2.1 nM | 
Cc1ccc(-c2cccnc2CNC(=O)c2nc(N)nc3c(F)cccc23)nc1 [Example 68, 2-amino-8-fluoro-N-[[3-(5-methyl-2-pyridyl)-2-pyridyl]methyl]quinazoline-4-carboxamide] | 44 | 9.1 nM | 
COc1cccc2c(C(=O)NCc3ccccc3-c3cccnc3)nc(N)nc12 [Example 41, 2-amino-8-methoxy-N-[[2-(3-pyridyl)phenyl]methyl]quinazoline-4-carboxamide] | 56 | 9.2 nM | 
Nc1nc(C(=O)NCc2cccc(Cc3ccncc3)n2)c2cccc(F)c2n1 [Example 112, 2-amino-8-fluoro-N-[[6-(4-pyridylmethyl)-2-pyridyl]methyl]quinazoline-4-carboxamide] | 31 |  | 1.6 nM
COc1cccc2c(C(=O)NCc3cccc(-c4ccccn4)n3)nc(N)nc12 [Example 10, 2-amino-8-methoxy-N-[[6-(2-pyridyl)-2-pyridyl]methyl]quinazoline-4-carboxamide] | 113 |  | 1.2 nM
COc1cccnc1CNC(=O)c1nc(N)nc2c(OC)cccc12 [Example 23, 2-amino-8-methoxy-N-[(3-methoxy-2-pyridyl)methyl]quinazoline-4-carboxamide] | 110 |  | 3 nM
CCn1cccc(CNC(=O)c2nc(N)nc3c(OC)cccc23)c1=O [Example 13, 2-amino-N-[(1-ethyl-2-oxo-3-pyridyl)methyl]-8-methoxy-quinazoline-4-carboxamide] | 112 |  | 0.2 nM
[2H]C([2H])(NC(=O)c1nc(N)nc2c(OC)cccc12)c1cccc(C([2H])([2H])c2cncc(N3CCOCC3)c2)n1 [Example 110, 2-amino-N-[dideuterio-[6-[dideuterio-(5-morpholino-3-pyridyl)methyl]-2-pyridyl]methyl]-8-methoxy-quinazoline-4-carboxamide] | 64 | 2.5 nM | 
Nc1nc(C(=O)NCc2cccc3cccnc23)c2cccc(Br)c2n1 [Example 96, 2-amino-8-bromo-N-(8-quinolylmethyl)quinazoline-4-carboxamide] | 12 | 0.7 nM | 
COc1cccc2c(C(=O)NCc3ncccc3C(F)(F)F)nc(N)nc12 [Example 19, 2-amino-8-methoxy-N-[[3-(trifluoromethyl)-2-pyridyl]methyl]quinazoline-4-carboxamide] | 53 |  | 2.6 nM
COc1cccc2c(C(=O)NC3CCc4ccccc4C3)nc(N)nc12 (centres unmarked) [Example 34, 2-amino-8-methoxy-N-[2-tetralin-2-yl]quinazoline-4-carboxamide] | 46 |  | 20 nM
N#Cc1ccc(OCc2cccc(CNC(=O)c3nc(N)nc4c(F)cccc34)n2)cc1 [Example 47, 2-amino-N-[[6-[(4-cyanophenoxy)methyl]-2-pyridyl]methyl]-8-fluoro-quinazoline-4-carboxamide] | 36 | 3.8 nM | 
COc1cccc2c(C(=O)NCc3ccccc3-c3ccccn3)nc(N)nc12 [Example 43, 2-amino-8-methoxy-N-[[2-(2-pyridyl)phenyl]methyl]quinazoline-4-carboxamide] | 84 | 2.3 nM | 
Nc1nc(C(=O)NCc2ncccc2-c2ncccn2)c2cccc(F)c2n1 [Example 67, 2-amino-8-fluoro-N-[(3-pyrimidin-2-yl-2-pyridyl)methyl]quinazoline-4-carboxamide] | 297 |  | 4 nM
CC(C)c1cccc(-c2cccc(CNC(=O)c3nc(N)nc4c(F)cccc34)n2)c1 [Example 65, 2-amino-8-fluoro-N-[[6-(3-isopropylphenyl)-2-pyridyl]methyl]quinazoline-4-carboxamide] | 50 |  | 1 nM
COc1cccc2c(C(=O)NCc3nc(-c4ccccc4)c(C)o3)nc(N)nc12 [Example 31, 2-amino-8-methoxy-N-[(5-methyl-4-phenyl-oxazol-2-yl)methyl]quinazoline-4-carboxamide] | 105 |  | 1.6 nM
COc1cccc2c(C(=O)NCc3ccc4ccccc4n3)nc(N)nc12 [Example 30, 2-amino-8-methoxy-N-(2-quinolylmethyl)quinazoline-4-carboxamide] | 138 |  | 1.5 nM
[2H]C([2H])(NC(=O)c1nc(N)nc2c(OC)cccc12)c1cccc(N2CCN(c3ccc(OCCOC)cc3)CC2)n1 [Example 60, 2-amino-N-[dideuterio-[6-[4-[4-(2-methoxyethoxy)phenyl]piperazin-1-yl]-2-pyridyl]methyl]-8-methoxy-quinazoline-4-carboxamide] | 67 | 4.3 nM | 
COc1cccc2c(C(=O)NCc3cccc(-c4cccc(O)c4)n3)nc(N)nc12 [Example 8, 2-amino-N-[[6-(3-hydroxyphenyl)-2-pyridyl]methyl]-8-methoxy-quinazoline-4-carboxamide] | 4 | 3.3 nM | 
Nc1nc(C(=O)NCc2cccc3cccnc23)c2cccc(Cl)c2n1 [Example 91, 2-amino-8-chloro-N-(8-quinolylmethyl)quinazoline-4-carboxamide] | 70 |  | 3 nM
Nc1nc(C(=O)NCc2cccc3c2NCCC3)c2cccc(F)c2n1 [Example 90] |  |  | 3 nM
